Values joined by “and” are separate entries in the source; they are usually repeats but may differ in a detail not shown here. Equal entries are not always repeated.
Experiment: molar heat capacity at constant pressure
Settings: 101.33 kPa, Crystal, PPMS instrument (Quantum Design)

O=P([O-])([O-])[O-].[La+3] [lanthanum orthophosphate]
Settings	molar heat capacity at constant pressure
2.046 K	0.00182 J/K/mol
2.066 K	0.00139 J/K/mol
2.067 K	0.0014 J/K/mol
2.068 K	0.00141 J/K/mol
2.083 K	0.00123 J/K/mol
2.246 K	0.0017 J/K/mol
2.247 K	0.0017 J/K/mol and 0.00172 J/K/mol
2.415 K	0.00201 J/K/mol
2.429 K	0.00212 J/K/mol
2.43 K	0.00213 J/K/mol
2.616 K	0.00265 J/K/mol
2.617 K	0.00266 J/K/mol
2.618 K	0.00266 J/K/mol
2.763 K	0.0031 J/K/mol
2.802 K	0.0034 J/K/mol
2.803 K	0.00342 J/K/mol
2.805 K	0.00339 J/K/mol
2.989 K	0.00467 J/K/mol
2.992 K	0.00476 J/K/mol
2.994 K	0.00473 J/K/mol
3 K	0.0053 J/K/mol
3.115 K	0.00524 J/K/mol
3.19 K	0.00601 J/K/mol
3.191 K	0.00593 J/K/mol and 0.00603 J/K/mol
3.383 K	0.00728 J/K/mol
3.385 K	0.00731 J/K/mol
3.386 K	0.0073 J/K/mol
3.473 K	0.00765 J/K/mol
3.505 K	0.00809 J/K/mol
3.578 K	0.00852 J/K/mol
3.58 K	0.00853 J/K/mol and 0.00852 J/K/mol
3.772 K	0.00994 J/K/mol
3.775 K	0.00998 J/K/mol
3.778 K	0.00998 J/K/mol
3.839 K	0.01034 J/K/mol
3.969 K	0.01147 J/K/mol
3.973 K	0.01149 J/K/mol
3.976 K	0.01146 J/K/mol
4.008 K	0.01178 J/K/mol
4.168 K	0.0131 J/K/mol
4.172 K	0.01315 J/K/mol
4.174 K	0.01314 J/K/mol
4.207 K	0.01339 J/K/mol
4.368 K	0.01481 J/K/mol
4.371 K	0.01487 J/K/mol
4.372 K	0.01494 J/K/mol
4.518 K	0.01632 J/K/mol
4.565 K	0.01686 J/K/mol
4.568 K	0.01687 J/K/mol
4.569 K	0.0169 J/K/mol
4.576 K	0.01697 J/K/mol
4.763 K	0.01882 J/K/mol
4.765 K	0.01903 J/K/mol
4.768 K	0.01911 J/K/mol
4.946 K	0.02113 J/K/mol
4.961 K	0.02146 J/K/mol
4.965 K	0.02154 J/K/mol
4.967 K	0.02153 J/K/mol
5.031 K	0.02216 J/K/mol
5.166 K	0.02384 J/K/mol
5.173 K	0.02394 J/K/mol
5.174 K	0.02375 J/K/mol
5.323 K	0.02601 J/K/mol
5.367 K	0.0265 J/K/mol
5.369 K	0.02666 J/K/mol
5.37 K	0.02686 J/K/mol
5.546 K	0.02914 J/K/mol
5.565 K	0.02951 J/K/mol
5.574 K	0.02974 J/K/mol and 0.02916 J/K/mol
5.695 K	0.03139 J/K/mol
5.77 K	0.03276 J/K/mol
5.771 K	0.03277 J/K/mol
5.774 K	0.03288 J/K/mol
5.965 K	0.03647 J/K/mol
5.967 K	0.03583 J/K/mol
5.974 K	0.03623 J/K/mol
6.057 K	0.03765 J/K/mol
6.065 K	0.03776 J/K/mol
6.165 K	0.03972 J/K/mol
6.17 K	0.03972 J/K/mol
6.171 K	0.03961 J/K/mol
6.367 K	0.04348 J/K/mol
6.37 K	0.04345 J/K/mol
6.373 K	0.04366 J/K/mol
6.438 K	0.04486 J/K/mol
6.567 K	0.04741 J/K/mol
6.572 K	0.04748 J/K/mol
6.574 K	0.04752 J/K/mol and 0.04753 J/K/mol
6.768 K	0.05148 J/K/mol
6.773 K	0.05174 J/K/mol
6.774 K	0.05167 J/K/mol
6.812 K	0.05274 J/K/mol
6.968 K	0.0563 J/K/mol
6.973 K	0.0564 J/K/mol
6.976 K	0.05661 J/K/mol
7.087 K	0.05926 J/K/mol
7.169 K	0.06123 J/K/mol
7.175 K	0.06142 J/K/mol
7.176 K	0.06139 J/K/mol
7.188 K	0.06178 J/K/mol
7.371 K	0.06581 J/K/mol
7.377 K	0.06689 J/K/mol
7.381 K	0.06684 J/K/mol
7.56 K	0.07178 J/K/mol
7.57 K	0.07164 J/K/mol
7.575 K	0.072 J/K/mol
7.579 K	0.07223 J/K/mol
7.604 K	0.07273 J/K/mol
7.774 K	0.07756 J/K/mol
7.778 K	0.07802 J/K/mol
7.779 K	0.07794 J/K/mol
7.937 K	0.08278 J/K/mol
7.975 K	0.08393 J/K/mol
7.98 K	0.08397 J/K/mol
7.983 K	0.08418 J/K/mol
8.119 K	0.08872 J/K/mol
8.176 K	0.09007 J/K/mol
8.182 K	0.09043 J/K/mol
8.184 K	0.09022 J/K/mol
8.313 K	0.09473 J/K/mol
8.378 K	0.09678 J/K/mol
8.383 K	0.09686 J/K/mol
8.385 K	0.09715 J/K/mol
8.584 K	0.1041 J/K/mol
8.589 K	0.1043 J/K/mol
8.592 K	0.1046 J/K/mol
8.642 K	0.1065 J/K/mol
8.696 K	0.1085 J/K/mol
8.785 K	0.1119 J/K/mol
8.792 K	0.1125 J/K/mol
8.794 K	0.1122 J/K/mol
8.987 K	0.1198 J/K/mol
8.993 K	0.1201 J/K/mol
8.996 K	0.1202 J/K/mol
9.07 K	0.1232 J/K/mol
9.158 K	0.127 J/K/mol
9.188 K	0.1284 J/K/mol
9.196 K	0.131 J/K/mol and 0.1286 J/K/mol
9.198 K	0.1286 J/K/mol
9.393 K	0.1371 J/K/mol
9.398 K	0.1378 J/K/mol
9.4 K	0.1349 J/K/mol
9.447 K	0.1398 J/K/mol
9.586 K	0.1462 J/K/mol
9.598 K	0.1469 J/K/mol
9.602 K	0.1471 J/K/mol
9.675 K	0.1505 J/K/mol
9.792 K	0.1565 J/K/mol
9.8 K	0.1568 J/K/mol
9.805 K	0.157 J/K/mol
9.822 K	0.1578 J/K/mol
9.994 K	0.1666 J/K/mol
10 K	0.1669 J/K/mol
10.01 K	0.1671 J/K/mol
10.19 K	0.1769 J/K/mol
10.2 K	0.1776 J/K/mol and 0.1771 J/K/mol
10.21 K	0.1778 J/K/mol
11.18 K	0.2376 J/K/mol
12.19 K	0.3139 J/K/mol
13.19 K	0.4068 J/K/mol
14.19 K	0.5187 J/K/mol
15.2 K	0.6528 J/K/mol
16.21 K	0.8094 J/K/mol
17.22 K	0.9882 J/K/mol
18.24 K	1.192 J/K/mol
19.25 K	1.422 J/K/mol
20.24 K	1.669 J/K/mol
21.28 K	1.955 J/K/mol
22.27 K	2.25 J/K/mol
23.28 K	2.587 J/K/mol
24.29 K	2.937 J/K/mol
25.31 K	3.319 J/K/mol
26.33 K	3.721 J/K/mol
27.36 K	4.152 J/K/mol
28.34 K	4.576 J/K/mol
29.38 K	5.046 J/K/mol
30.37 K	5.505 J/K/mol
31.4 K	6.006 J/K/mol
32.4 K	6.51 J/K/mol
33.41 K	7.04 J/K/mol
34.43 K	7.567 J/K/mol
35.43 K	8.121 J/K/mol
36.45 K	8.686 J/K/mol
37.45 K	9.258 J/K/mol
38.41 K	9.809 J/K/mol
38.46 K	9.827 J/K/mol
39.48 K	10.43 J/K/mol
40.48 K	11.02 J/K/mol
40.49 K	11.03 J/K/mol
42.49 K	12.25 J/K/mol
44.51 K	13.49 J/K/mol
46.53 K	14.76 J/K/mol
48.55 K	16.05 J/K/mol
50.57 K	17.36 J/K/mol
52.59 K	18.66 J/K/mol
54.6 K	19.95 J/K/mol
56.62 K	21.25 J/K/mol
58.64 K	22.56 J/K/mol
60.66 K	23.86 J/K/mol
62.68 K	25.14 J/K/mol
64.7 K	26.41 J/K/mol
66.72 K	27.64 J/K/mol
68.74 K	28.87 J/K/mol
70.74 K	30.08 J/K/mol
72.76 K	31.29 J/K/mol
74.78 K	32.47 J/K/mol
75.85 K	33.08 J/K/mol
76.8 K	33.62 J/K/mol
78.81 K	34.78 J/K/mol
80.81 K	35.87 J/K/mol
80.84 K	35.88 J/K/mol
85.86 K	38.64 J/K/mol
90.91 K	41.31 J/K/mol
95.96 K	43.8 J/K/mol
101 K	46.3 J/K/mol
106 K	48.66 J/K/mol
111.1 K	50.92 J/K/mol
116.1 K	53.11 J/K/mol
121.2 K	55.16 J/K/mol
126.2 K	57.26 J/K/mol
131.3 K	59.2 J/K/mol
136.3 K	61.11 J/K/mol
141.4 K	62.97 J/K/mol
146.4 K	64.73 J/K/mol
151.4 K	66.44 J/K/mol
156.5 K	68.1 J/K/mol
161.5 K	69.61 J/K/mol
166.5 K	71.14 J/K/mol
171.6 K	72.74 J/K/mol
176.6 K	74.33 J/K/mol
181.6 K	75.68 J/K/mol
186.7 K	77.05 J/K/mol
191.7 K	78.48 J/K/mol
196.7 K	79.89 J/K/mol
201.8 K	81.31 J/K/mol
206.8 K	82.59 J/K/mol
211.8 K	83.86 J/K/mol
216.9 K	85.21 J/K/mol
221.9 K	86.36 J/K/mol
226.9 K	87.35 J/K/mol
231.9 K	88.39 J/K/mol
237 K	89.46 J/K/mol
242 K	90.5 J/K/mol
247 K	91.49 J/K/mol
252.1 K	92.36 J/K/mol
257.1 K	93.28 J/K/mol
262.1 K	94.21 J/K/mol
267.1 K	95.29 J/K/mol
272.1 K	96.19 J/K/mol
277.1 K	97.31 J/K/mol
282.2 K	98.39 J/K/mol and 98.37 J/K/mol
287.2 K	99.41 J/K/mol
287.3 K	99.33 J/K/mol
292.2 K	100.36 J/K/mol
292.3 K	100.2 J/K/mol
297.3 K	100.95 J/K/mol
302.26 K	101.79 J/K/mol
302.33 K	101.79 J/K/mol
302.35 K	101.81 J/K/mol
307.29 K	102.41 J/K/mol
307.35 K	102.45 J/K/mol
307.37 K	102.44 J/K/mol
312.31 K	103.05 J/K/mol
312.37 K	102.95 J/K/mol
312.39 K	103 J/K/mol
317.33 K	103.53 J/K/mol
317.4 K	103.64 J/K/mol
317.42 K	103.68 J/K/mol
322.35 K	104.24 J/K/mol
322.44 K	104.25 J/K/mol
322.45 K	104.34 J/K/mol
327.36 K	105.12 J/K/mol
327.45 K	105.03 J/K/mol
327.48 K	104.97 J/K/mol
332.38 K	105.69 J/K/mol
332.46 K	105.73 J/K/mol
332.48 K	105.57 J/K/mol
337.4 K	106 J/K/mol
337.5 K	106.2 J/K/mol and 106.19 J/K/mol
342.43 K	106.41 J/K/mol
342.53 K	106.46 J/K/mol
342.55 K	106.5 J/K/mol
347.11 K	107.02 J/K/mol
347.2 K	106.86 J/K/mol
347.23 K	106.97 J/K/mol
351.79 K	107.32 J/K/mol
351.86 K	107.38 J/K/mol and 107.33 J/K/mol
356.73 K	107.65 J/K/mol
356.79 K	107.89 J/K/mol
356.81 K	107.7 J/K/mol
361.73 K	108.18 J/K/mol
361.79 K	108.22 J/K/mol
361.8 K	108.28 J/K/mol
366.74 K	108.45 J/K/mol
366.81 K	108.25 J/K/mol and 108.64 J/K/mol
371.74 K	108.81 J/K/mol
371.8 K	108.77 J/K/mol
371.82 K	108.81 J/K/mol
376.74 K	109.11 J/K/mol
376.8 K	109 J/K/mol
376.82 K	108.98 J/K/mol
381.74 K	109.41 J/K/mol
381.81 K	109.29 J/K/mol
